Test results from US20120035203A1, “BUTACLAMOL FOR THE TREATMENT OF AMYOTROPHIC LATERAL SCLEROSIS” (CAMBRIA PHARMACEUTICALS, INC., priority 2009, published 2012).
“Also recorded” adds a separate entry of the source. Peptide text beside a SMILES is read from it. * marks the point of attachment. Cbz = O=C(OCc1ccccc1)*

Legend:
[1] = system: PC12 cells that express mutant G93A SOD1 as a YFP fusion protein; experiment: high throughput cytotoxicity protection assay; details: for Activity in Protection Assay: neuroleptic agent screening; for protection of cell viability from MG132: 100 nM MG132 co-treatment; for EC50: Rattus norvegicus, PC-12, read-out: Protection ED50; for Protection Efficacy Conc.: concentration at which the % viability is given
Procedure: This idea was tested by examining the sensitivity of PC12 cells to SOD1 aggregates in the presence and absence of proteasome inhibitor MG132. PC12 cells expressing no SOD1, wild type SOD1, G85R SOD1 or G93A SOD1 were grown with or without MG132 (FIG. 1). […] The ability of protein aggregates to induce cell death was examined by treating G93A SOD1-expressing cells with MG132 for 24 h, removing the MG132 by washing and assaying cell viability after another 24 h.
PC12 cells expressing G93A SOD1 were treated with 100 nM MG132 with or without co-treatment with geldanamycin or radicicol.

[2] = system: PC12 cells expressing G85R SOD1; experiment: mutant SOD1 direct protein aggregation assay; type: cell-based
Procedure: 4) Compounds could act directly on SOD1 in a manner that prevents mutant SOD1 aggregation. These possibilities were tested using an assay that directly measures protein aggregation. In addition, unlike the high throughput cytotoxicity protection assay, the protein aggregation assay is based on G85R SOD1; this broadens the scope of the screening strategy, and should eliminate compounds with highly specific activity (i.e., G93A SOD1 limited) against protein aggregation.
The identification of a positive control is a crucial step in assay development. Thus, PC12 cells expressing G85R or G93A mutant SOD1 were treated with MG132 to induce protein aggregation, and then co-treated with candidate chemical suppressors of protein aggregation.
To allow this assay to be used in a high-throughput manner, a Cellomics Arrayscan® high content microscopy system was used for screening and quantification. […] Because the most robust high content assays measure events on a per cell basis, it was necessary to select a fluorescent stain that marks whole cells to be used with a compatible stain that marks intracellular structures.

[3] = system: PC12 cells expressing G93A mutant SOD1; experiment: MG132-induced SOD1 protein aggregation; type: cell-based
Procedure: (§1) In PC12 cells that express wild-type SOD1, SOD1 was diffusely localized throughout the cell (Matsumoto et al. J. Cell. Biol 2005, 171(1), 75-85). […] Therefore, these effects are likely to be due to MG132-induced proteasome inhibition, and not due to an off-target effect of MG132.
The identification of a positive control is a crucial step in assay development. Thus, PC12 cells expressing G85R or G93A mutant SOD1 were treated with MG132 to induce protein aggregation, and then co-treated with candidate chemical suppressors of protein aggregation. […] Both compounds induce heat shock transcription factor HSF-1, which in turn induces the heat shock response (FIG. 4). Treatment with radicicol reduced the proportion of cells with aggregates from 75% to 25%, a sufficient difference to allow visual scoring for compounds with efficacy equal to or greater than radicicol.

[4] = system: PC12 cells expressing wild-type SOD1; experiment: MG132-induced SOD1 protein aggregation; type: cell-based; details: cells treated with MG132
Excerpt: as §1

[5] = system: PC12 cells expressing no SOD1, wild type SOD1 and G85R SOD1; experiment: sensitivity of PC12 cells to proteasome inhibitor (cell viability, calcein-AM); type: cell-based; details: Rattus norvegicus, PC-12
[6] = system: PC12 cells expressing G93A SOD1; experiment: as above; type: cell-based
Procedure: FIG. 1. Proteasome inhibition is selectively toxic to PC12 cells expressing mutant G93A SOD1. Cell survival was determined using the viability stain calcein-AM.

[7] = system: [3H] dopamine binding sites; details: cited from earlier work
[8] = system: [3H] haloperidol binding sites; details: cited from earlier work
[9] = high doses; cited from earlier work
[10] = cellular toxicity; type: cell-based
Excerpt: Butaclamol is a diasteriomer and the two different isomeric forms can be physically separated.

[11] = system: G93A SOD1 transgenic mice; experiment: transgenic G93A SOD1 ALS mouse model (open field, survival, neuropathology); type: in vivo; details: for Average life span: untreated 125.1±3.8
Excerpt: Subjects. […] The development of transgenic mice expressing G93A human SOD1 as a mouse model for the human disease has been regarded as a major breakthrough for development of ALS therapeutics. G93A SOD1 transgenic mice develop progressive hind limb weakness, muscle wasting, and neuropathological sequelae similar to those observed in patients with both sporadic and familial ALS. […] In addition, motor performance deteriorates as the disease progresses. The G93A SOD1 mouse model has played a prominent role in studying disease progression and especially for testing potential therapeutic agents, the latter in part because these animals have a shortened life span of approximately 126 days. In the present study, G93A SOD1 mice and littermate controls are bred from existing colonies at the Bedford VA Medical Hospital. The male G93A SOD1 mice are mated with B6SJL females and the offspring are genotyped by PCR using tail DNA. The number of SOD1 transgenes are assessed by PCR to ensure that transgene copy number remains constant. Mice are housed in micro-isolator cages in complete barrier facilities, and all studies are performed in these facilities. A 12 hour light-dark cycle is maintained and animals are given free access to food and water. Control and transgenic mice of the same age (±2 days) and from the same ‘f generation will be selected from multiple litters to form experimental cohorts (n=20 per group). Standardized criteria for age and parentage are used for placing individual mice into experimental groups/cohorts. Wild type mice are used for initial toxicity, tolerability, and pharmacokinetic studies and ALS mice are used for one-month tolerability studies.
Tolerability, Dosing, and Pharmacokinetics. The tolerable dose range and LD50 for butaclamol was determined in wild type mice by increasing the dose b.i.d. one-fold each injection. The route of administration was via i.p. administration, which was previously reported to produce robust effects in behavioral pharmacology studies, and starting dose range was guided by these prior studies (Lippmann et al., Life Sciences 16, 213, (1975); Humber et al., Mol. Pharmacol. 11, 833, (1975); Voith and Herr, Psychopharmacologia 42, 11, (1975)). One goal was to select a range of doses for the efficacy study starting ten fold below the maximum tolerated dose. Initial pharmacokinetic (pK) studies were conducted by giving animals a single dose, sacrificing them after 30 min, 1 h, 2 h, 4 h, 6 h, and 12 h, and dissecting brains and spinal cords and determining drug concentration in the target tissue. Drug steady-state level was determined in animals that had been dosed for 1 week prior to sacrifice. The range of dosing levels of 0.01, 0.1, and 1 mg/kg once a day were administered throughout the lives of the G93A mice.
Behavioral pharmacology. Behavioral testing for the transgenic G93A SOD1 mice were performed during the light phase of the diurnal cycle since these mice are sufficiently active during that time. Measurements were made for 30 minutes after 10 minutes of acclimation to the box (Opto-Varimex Unit, Columbus Instruments, Columbus, Ohio, USA). Counts of horizontal and vertical motion activity were monitored and quantitative analysis of locomotor activity (resting and ambulatory times), were assessed. The open field box was cleaned before testing each mouse. Each 30 minutes of testing was analyzed as three periods of 10 minute intervals to study the influence of novelty and measured behavior. Mice were coded and investigators were blinded to the genotype and analysis. Testing started on week 4 and performed every other week until the mice could no longer participate.
Efficacy studies. Efficacy was measured using endpoints that clearly indicate neuroprotective function. These include amelioration of degenerative changes in the spinal cord, improved motor function, and prolonged survival. […]

[12] = system: G93A mice; experiment: climbing assay for extrapyramidal effects; type: in vivo, mouse; details: 0.01, 0.1, 1 mg/kg
Excerpt: A climbing assay was used to test for extrapyramidal effects.

[13] = system: healthy volunteers and chronic schizophrenic patients; details: cited from earlier work

O=C(CCCN1CCC(O)(c2ccc(Cl)cc2)CC1)c1ccc(F)cc1 [Haloperidol]
Activity in Protection Assay [1]: Inactive

Cc1nc2n(c(=O)c1CCN1CCC(c3noc4cc(F)ccc34)CC1)CCCC2 [Risperidone]
Activity in Protection Assay [1]: Inactive

OCCN1CCN(CCCN2c3ccccc3Sc3ccc(Cl)cc32)CC1 [Perphenazine]
Activity in Protection Assay [1]: Inactive

O=c1[nH]c2ccccc2n1C1CCN(CCCC(c2ccc(F)cc2)c2ccc(F)cc2)CC1 [Pimozide]
Activity in Protection Assay [1]: Inactive

CC(C)C[C@@H](C=O)NC(=O)[C@H](CC(C)C)NC(=O)[C@H](CC(C)C)NC(=O)OCc1ccccc1 [MG132] (Cbz-Leu-Leu-Leu-aldehyde)
cells containing protein aggregates ([2]; G85R SOD1 cells treated with MG132): up to 75%
cells with protein aggregates ([3]; G93A SOD1 cells following treatment with MG132): ~75%
protein aggregation in wild-type SOD1 cells [4]: no aggregation was observed
IC50 [5]: ~400 nM
toxicity at 24 hr ([6]; 100 nM, 24 hr, any of the cell lines): no toxicity
toxicity after 48 hours ([6]; 100 nM, 48 hours): selectively toxic to the G93A SOD1 cell line
fold more sensitive than the other PC12 lines ([6]; G93A SOD1 cells vs no SOD1, wild type, G85R): approximately 5 fold
IC50 ([6]; Rattus norvegicus, PC-12, read-out: IC50 (cell viability)): ~75 nM

(+) butaclamol
activity in the protection assay [1]: showed activity
times more potent than the (−) isomer [7]: about one hundred
times more potent than the (−) isomer [8]: one thousand
effect on epinephrine-induced mortality [9]: antagonized epinephrine-induced mortality

CN(C)CC/C=C1/c2ccccc2Sc2ccc(Cl)cc21 [Chlorprothixene]
Activity in Protection Assay [1]: Inactive

CN1CCN(C2=Nc3cc(Cl)ccc3Nc3ccccc32)CC1 [Clozapine]
Activity in Protection Assay [1]: Inactive

C[C@@H]1C[C@H]2O[C@@H]2/C=C\C=C\C(=O)Cc2c(Cl)c(O)cc(O)c2C(=O)O1 [Radicicol]
protection of cell viability from MG132 [1]: protects
protection of cell viability from MG132 ([1]; listed as radicicol): increased cell viability in a dose-dependent manner
EC50 [1]: ~530 nM
Protection Efficacy % Viability ([1]; at the concentration given): 80%
Protection Efficacy Conc. [1]: 0.7 µM
Aggregation [2]: Moderate
proportion of cells with aggregates ([2]; G85R or G93A mutant SOD1 cells, co-treated with MG132, 75% without radicicol): 25%
suppression of MG132-induced mutant SOD1 aggregation ([2]; G93A SOD1 or G85R SOD1 cells, MG132 co-treatment): decreases mutant SOD1 aggregation
formation of protein aggregates ([3]; 100 nM MG132 co-treatment): reduced formation of protein aggregates
IC50 [10]: ~30000 nM

CC(C)C[C@H](NC(=O)[C@H](Cc1ccccc1)NC(=O)c1cnccn1)B(O)O [bortezomib]
sensitivity of PC12 cells to proteasome inhibition ([6]; compared with MG132): Qualitatively similar results

CN1CCN(CCCN2c3ccccc3Sc3ccc(C(F)(F)F)cc32)CC1 [Trifluoperazine]
Activity in Protection Assay [1]: Inactive

CC(C)(C)[C@]1(O)CCN2C[C@H]3c4ccccc4CCc4cccc(c43)[C@@H]2C1 [Butaclamol]
activity in the protection assay [1]: showed activity
EC50 [1]: ~840 nM
Protection Efficacy Conc. [1]: 15 µM
Activity in Protection Assay [1]: Active
Protection Efficacy % Viability ([1]; rat): 80%
Aggregation [2]: Inactive
activity in the aggregation assay [2]: inactive
IC50 [10]: < 25000 nM
gross lumbar spinal cord (atrophy) ([11]; 0.1 mg/kg, 120 days, WT 3.18±0.24×10^6, untreated 2.25±0.49×10^6, P<0.01): 2.97±0.31×10^6 μm^3
ventral horn of the lumbar spinal cord (atrophy) ([11]; 0.1 mg/kg, 120 days, WT 7.29±0.41×10^5, untreated 5.28±0.63×10^5, P<0.05): 6.55±0.37×10^5 μm
ventral horn neuronal count ([11]; 0.1 mg/kg, 120 days, WT 98.1±12.9, untreated 22.4±15.8, P<0.01): 57.3±18.2
reactive astrogliosis (GFAP expression, lumbar spinal cord) ([11]; butaclamol treatment): ameliorated; also recorded: markedly attenuates reactive astrogliosis
open field motor activity ([11]; high dose 1 mg/kg, throughout treatment, vs wild type or untreated G93A): significantly reduced motor activity outcome measures
Average life span ([11]; high dose (1 mg/kg once a day, i.p.)): 123.7 ± 6.2 days
open field behavior (distance traveled, resting time, ambulatory count, ambulatory time) ([11]; low dose 0.01 mg/kg, 6 week to 12-13 week): no significant effect
Average life span ([11]; low dose (0.01 mg/kg once a day, i.p.)): 129.3 ± 4.1 days
open field behavior ([11]; medium dose 0.1 mg/kg, 6 weeks to 12-13 weeks, 0.1 mg/kg): not significantly different from wild type mice
Average life span ([11]; medium dose (0.1 mg/kg once a day, i.p.)): 141.0 ± 5.3 days
extended survival as compared with untreated G93A mice ([11]; medium dose (0.1 mg/kg)): 12.7%
extrapyramidal effects [12]: No significant extrapyramidal effects
limiting effects in Phase I ([13]; healthy volunteers, single and repeated doses up to 32 mg/day): sedation and extrapyramidal effects
dose producing extrapyramidal effects in patients ([13]; human, in vivo): ≥ 10 mg/day
neuroleptic activity in chronic schizophrenic patients ([13]; long-term, 50 mg/day): active neuroleptic agent

CN(C)CCCN1c2ccccc2Sc2ccc(Cl)cc21 [Chlorpromazine]
Activity in Protection Assay [1]: Inactive

CN1CCN(C2=Nc3ccccc3Oc3ccc(Cl)cc32)CC1 [Loxapine]
Activity in Protection Assay [1]: Inactive
